Calls of active or inactive are those of the source. The rule behind the calls is not given here.
Test system: GENE-TOX genotoxicity assays, various organisms and cells
Assay: GENE-TOX mutagenicity studies
[1] = Species/Cell Type: Drosophila melanogaster, Assay Type: Sex-linked recessive lethal gene mutation, Assay Code: SRLT, Evaluation Type: Evaluation A (Pre-1980)
[2] = Species/Cell Type: Escherichia coli polA (W3119 vs P3478), Assay Type: Rec-assay, DNA effects (bacterial DNA repair), Assay Code: RE1T, Evaluation Type: Evaluation A (Pre-1980)
[3] = Species/Cell Type: Human diploid fibroblasts, Assay Type: Unscheduled DNA synthesis (UDS) in vitro, DNA effects, Assay Code: UDH-, Evaluation Type: Evaluation A (Pre-1980)
[4] = Species/Cell Type: Human lymphocytes, Assay Type: Sister-chromatid exchange (SCE) in vitro, Assay Code: SCL+D, Dose Response: With dose response, Evaluation Type: Evaluation B (Post-1980)
[5] = Species/Cell Type: Human, Assay Type: Sister-chromatid exchange (SCE) in vitro, Assay Code: SC1+D, Dose Response: With dose response, Evaluation Type: Evaluation B (Post-1980)
[6] = Species/Cell Type: Salmonella typhimurium (one or more of the five standard strains: TA98, TA100, TA1535, TA1537, and TA1538), Assay Type: Histidine reverse gene mutation, Ames assay, Assay Code: SAL-, Evaluation Type: Evaluation A (Pre-1980)
[7] = Species/Cell Type: Drosophila melanogaster, Assay Type: Sex-linked recessive lethal gene mutation, Assay Code: SRL+, Evaluation Type: Evaluation A (Pre-1980)
[8] = Species/Cell Type: Nonhuman, Assay Type: Chromosome aberrations in vitro, Assay Code: CY&+, Evaluation Type: Evaluation A (Pre-1980)

With O=c1[nH]c(=O)n([C@H]2C[C@H](O)[C@@H](CO)O2)cc1I the mutagenic call (Species/Cell Type: Arabidopsis species, Assay Type: Gene mutation, Assay Code: ARM-, Evaluation Type: Evaluation A (Pre-1980)) was “inactive; negative”, the mutagenic call [1] was “no conclusion” and the mutagenic call [2] was “no conclusion”. For the same molecule, the mutagenic call [3] was “inactive; negative”, the mutagenic call [4] was “active; positive” and the mutagenic call [5] was “active; positive”. For the same molecule, the mutagenic call (Species/Cell Type: Mammalian polychromatic erythrocytes, Assay Type: Micronucleus test, chromosome aberrations, Assay Code: MNTT, Evaluation Type: Evaluation A (Pre-1980)) was “no conclusion”, the mutagenic call (Species/Cell Type: Mouse, Sex: Male, Assay Type: Sperm morphology, Assay Code: SPI+, Evaluation Type: Evaluation A (Pre-1980)) was “active; positive” and the mutagenic call (Species/Cell Type: Saccharomyces cerevisiae, Assay Type: Mitotic recombination or gene conversion, Assay Code: YEH-*, Activation: With metabolic activation, Evaluation Type: Evaluation A (Pre-1980)) was “inactive; negative”. For the same molecule, the mutagenic call [6] was “inactive; negative”, the mutagenic call (Species/Cell Type: Salmonella typhimurium, Assay Type: Forward and reverse gene mutation, host-mediated assay, Assay Code: HMA-, Evaluation Type: Evaluation A (Pre-1980)) was “inactive; negative” and the mutagenic call (Species/Cell Type: Syrian hamster embryo (SA7/SHE) cells, Assay Type: Cell transformation, viral enhanced, Assay Code: CT7+, Evaluation Type: Evaluation A (Pre-1980)) was “active; positive”. For the same molecule, the mutagenic call (Species/Cell Type: Syrian hamster embryo (SHE) cells, Assay Type: Cell transformation, clonal assay, Assay Code: CTC-, Evaluation Type: Evaluation A (Pre-1980)) was “inactive; negative”.

For O=[N+]([O-])O.O=[N+]([O-])O.[Cd+2], the mutagenic call (Species/Cell Type: Nonhuman, Assay Type: Sister-chromatid exchange (SCE) in vitro, Assay Code: SC2-, Evaluation Type: Evaluation B (Post-1980)) was “inactive; negative”.

CC[N+]([O-])(CC)CCNc1ccc(C)c2sc3ccccc3c(=O)c12 was tested, and the mutagenic call (Species/Cell Type: Salmonella typhimurium (one or more of the five standard strains: TA98, TA100, TA1535, TA1537, and TA1538), Assay Type: Histidine reverse gene mutation, Ames assay, Assay Code: SALT, Evaluation Type: Evaluation A (Pre-1980)) was “no conclusion”.

O=P(N1C2COCC21)(N1C2COCC21)N1C2COCC21 (stereo unspecified) was tested, and the mutagenic call [7] was “active; positive”.

For CC(=O)Nc1ccc(-c2ccc(NC(C)=O)cc2)cc1, the call (Species/Cell Type: Nonhuman, Assay Type: In vivo carcinogenicity studies, Assay Code: CCG+, Evaluation Type: Evaluation A (Pre-1980)) was “active; positive”.

With CN(C)P(=O)(N(C)C)N1CC1 the mutagenic call [7] was “active; positive”, the mutagenic call [4] was “active; positive” and the mutagenic call [5] was “active; positive”. For the same molecule, the mutagenic call [8] was “active; positive”.

For CC(C)NP(=O)(N1CC1)N1CC1, the mutagenic call [7] was “active; positive” and the mutagenic call [8] was “active; positive”.

With Cc1cccc2c1cc(C)c1c3ccccc3ccc21 the mutagenic call (Species/Cell Type: Salmonella typhimurium (one or more of the five standard strains: TA98, TA100, TA1535, TA1537, and TA1538), Assay Type: Histidine reverse gene mutation, Ames assay, Assay Code: SAL+*, Activation: With metabolic activation, Evaluation Type: Evaluation A (Pre-1980)) was “active; positive”.

CN(C)c1ccc2nc3c(C(=O)O)cc(=O)c(O)c-3oc2c1 was tested, and the mutagenic call [1] was “no conclusion”.

In the case of N#Cc1c(Cl)cccc1Cl, the mutagenic call (Species/Cell Type: Saccharomyces cerevisiae, Assay Type: Mitotic recombination or gene conversion, Assay Code: YEC-, Evaluation Type: Evaluation A (Pre-1980)) is reported as “inactive; negative”.

In the case of COP(=O)(NC(C)=O)SC (stereo unspecified), the mutagenic call (Species/Cell Type: Bacillus subtilis (H17 vs M45), Assay Type: Rec-assay, spot test, DNA effects (bacterial DNA repair), Assay Code: REWT, Evaluation Type: Evaluation A (Pre-1980)) is reported as “no conclusion”, the mutagenic call (Species/Cell Type: Drosophila melanogaster, Assay Type: Sex-linked recessive lethal gene mutation, Assay Code: SRL-, Evaluation Type: Evaluation A (Pre-1980)) is reported as “inactive; negative” and the mutagenic call (Species/Cell Type: Escherichia coli WP2 UVRA, Assay Type: Tryptophan reverse gene mutation, Assay Code: WPU-*, Activation: With metabolic activation, Evaluation Type: Evaluation A (Pre-1980)) is reported as “inactive; negative”. The mutagenic call [2] was “no conclusion”, the mutagenic call [3] was “inactive; negative” and the mutagenic call (Species/Cell Type: Mammalian polychromatic erythrocytes, Assay Type: Micronucleus test, chromosome aberrations, Assay Code: MNTT, Evaluation Type: Evaluation B (Post-1980)) was “no conclusion”. The mutagenic call (Species/Cell Type: Neurospora crassa, Assay Type: Aneuploidy, chromosome aberrations, Assay Code: NEN-, Evaluation Type: Evaluation A (Pre-1980)) was “inactive; negative”, the mutagenic call (Species/Cell Type: Nonhuman, Assay Type: Sister-chromatid exchange (SCE) in vivo, Assay Code: SC3T, Evaluation Type: Evaluation B (Post-1980)) was “no conclusion” and the mutagenic call (Species/Cell Type: Saccharomyces cerevisiae, Assay Type: Mitotic recombination or gene conversion, Assay Code: YEH+, Evaluation Type: Evaluation A (Pre-1980)) was “active; positive”. For the same molecule, the mutagenic call [6] was “inactive; negative”.
